The results in this text go back to EPA's ToxValDB 9.5 (doi:10.2903/j.efsa.2008.126r).

Values after ≈ are worked out from the molar mass of the structure shown. A value given as a limit tells only on which side of the number the result lay.

For one series, the system named is Apis mellifera. The conditions noted are these: acute; duration: 48 hours; dermal; mortality.
The next series concerns Canidae. The conditions noted are these: subchronic; duration: 90 days; oral; Dog Other; histopathology: nonneoplastic.
The test system of the next series is Colinus virginianus. The conditions noted are these: for LD50: acute, oral, mortality.
In the next series the test system is Daphnia magna. The conditions noted are these: chronic/long-term; duration: 21 days; reproduction.
The subject of another series is Anas platyrhynchos. The conditions noted are these: for LD50: oral, mortality.

Consider `CC(C)Oc1cccc(NC(=O)c2ccccc2C(F)(F)F)c1` [Flutolanil], for which the LC50 in the series with Tagia sp. (acute, duration: 14 days, mortality) was more than 1000 mg/kg; with Pimephales promelas (acute, duration: 96 hours, mortality), 4.8 mg/L (≈ 14.8 µM). For the same compound, the NOEC came to 12.9 mg/kg in the series with Tagia sp. (chronic/long-term, duration: 56 days); 0.233 mg/L in the series with Pimephales promelas (chronic/long-term, duration: 30 days, growth); 0.53 mg/L in the series with Daphnia magna. In addition, the LD50 in the series on Apis mellifera is more than 200 µg/piece; in the series on Colinus virginianus (diet), more than 961 mg/kg-day; in the series with Colinus virginianus, more than 2000 mg/kg-day; in the series with Anas platyrhynchos (acute, unspecified), more than 2000 mg/kg-day; in the series on Anas platyrhynchos (short-term, feed), 1250 mg/kg-day; in the series with Rattus norvegicus (acute, oral, mortality) it was more than 10000 mg/kg-day. Further, the NOAEL with Canidae was determined as 80 mg/kg-day; with Rattus norvegicus (chronic, duration: 2 years, F, hematological) it was 8.7 mg/kg-day; in the series with Rattus norvegicus (chronic, duration: 2 years, M, histopathology: nonneoplastic), 8.7 mg/kg-day; in the series with Rattus norvegicus (reproduction developmental, organ weight), 157 mg/kg-day. In addition, the NOEL in the series on Colinus virginianus (reproduction developmental) was determined as 247 mg/kg-day; in the series with Anas platyrhynchos (reproductive), 267 mg/kg-day.
